Measurements as given in PMC5004101, “Broad Spectrum Anti-Influenza Agents by Inhibiting Self-Association of Matrix Protein 1” (Scientific Reports, 2016).

B1: matrix protein 1 (M1) N-terminal domain, residues 1-165, of influenza A virus H1N1 A/WSN/33 (domain or fragment)
chain: MSLLTEVETYVLSIVPSGPLKAEIAQRLEDVFAGKNTDLEVLMEWLKTRPILSPLTKGILGFVFTLTVPSERGLQRRRFVQNALNGNGDPNNMDKAVKLYRKLKREITFHGAKEIALSYSAGALASCMGLIYNRMGAVTTEVAFGLVCATCEQIADSQHRSHRQM
notes: also called N1-165-domain of WSN/33; biotinylated M1

Key:
[1] = biological target: T1, M1 (matrix protein 1), recombinant N1-165 domain of WSN/33 (Influenza A virus (A/Wilson-Smith/1933(H1N1)), UniProt P05777); experiment: bio-layer interferometry, inhibition of M1-M1 self-association; type: binding
T1 construct: gene M

[2] = biological target: T1, M1 (matrix protein 1), recombinant N1-165 domain of WSN/33 (Influenza A virus (A/Wilson-Smith/1933(H1N1)), UniProt P05777); experiment: surface plasmon resonance, biotinylated M1 on NeutrAvidin chip; type: binding
[3] = biological target: the molecule itself; experiment: SPR; […], room temperature, pH 7.4; […]

Row | Molecule | IC50 [1] [nM] | Kd [2] [nM] | Kd [3] [nM]
1 | CCCc1c(OCCCOc2ccc(OCC(=O)O)cc2)ccc(C(C)=O)c1O [PHE] | ~6000 | 870 ± 150 | 
2 | B1 |  |  | 0.05 ± 0.03
